Measurements as given in patent US20260144788A1, “COMPOUND FOR SHP2 PROTEIN DEGRADATION AND MEDICAL USES THEREOF” (UBIX THERAPEUTICS, INC., priority 2022, published 2026).

Target: T1, SHP2 protein (Homo sapiens, UniProt Q06124)
T1 sequence (Q06124 1-593): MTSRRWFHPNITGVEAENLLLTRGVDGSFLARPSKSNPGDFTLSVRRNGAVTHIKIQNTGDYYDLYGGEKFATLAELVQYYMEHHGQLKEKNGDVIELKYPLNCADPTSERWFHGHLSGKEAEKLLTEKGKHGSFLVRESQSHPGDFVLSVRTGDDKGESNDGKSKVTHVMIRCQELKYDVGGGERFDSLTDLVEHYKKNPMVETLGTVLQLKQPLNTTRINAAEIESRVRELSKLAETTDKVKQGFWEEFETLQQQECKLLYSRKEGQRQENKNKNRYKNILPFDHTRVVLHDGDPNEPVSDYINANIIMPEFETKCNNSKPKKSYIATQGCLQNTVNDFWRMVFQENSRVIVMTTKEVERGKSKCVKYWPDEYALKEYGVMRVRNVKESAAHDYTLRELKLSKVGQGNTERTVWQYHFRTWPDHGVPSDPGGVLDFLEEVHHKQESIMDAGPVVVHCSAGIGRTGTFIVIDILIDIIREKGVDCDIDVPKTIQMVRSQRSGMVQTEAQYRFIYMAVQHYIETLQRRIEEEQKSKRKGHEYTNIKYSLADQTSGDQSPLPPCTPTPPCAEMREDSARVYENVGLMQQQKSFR
Assay: Measurement of SHP2 protein degradation in MV-4-11 cells (western blotting)
Assay type: cell-based
Parameters: endogenous in cells
Conditions: harvested after 24 hours
Protocol: MV-4-11 cells were treated with the synthesized Example compounds, and the amount of SHP2 protein present in the cells was measured using western blotting detection. The protocol for the experiment conducted using MV-4-11 cells is as follows.
[Culture] MV-4-11 cells were resuspended in IMDM MEDIUM (Hyclone, SH30228.01), 5% FBS (Hyclone, SV30207.02), 1% Penicillin-streptomycin (Welgene, LS 202-02) media and seeded at 1×10^6/mL in 12-well plates (1 mL each).
[Compound treatment]12-well plates were treated as follows. 10 mM stock dissolved in DMSO was serially diluted 1/100 or 1/10 with media, and the compounds were treated to the cells at a final concentration of 0.01, 0.1, 1 μM or 0.001, 0.01, 0.1 μM, and harvested after 24 hours. For the negative control group, DMSO diluted 1/100 or 1/1000 in media was added (3 μL DMSO+297 μL media or 1 μL DMSO+999 μL media).
[Harvest] Each well was pipetted with a 1 mL pipette, collected in a 1.5 mL microtube, and centrifuged (500 g, 5 min, 4° C.). The supernatant was removed, washed with PBS, and centrifuged again (500 g, 5 min, 4° C.). The supernatant was removed and a pellet was prepared.
[Cell lysis and sample preparation] Lysis buffer was prepared as follows. RIPA buffer (Biosesang, RC2038-050-00)+0.5 mM PMSF (SIGMA, P7626)+1× Protease/Phosphatase Inhibitor (Cell signaling, 5872S) were added at 50 μL per tube and incubated on ice for 30 minutes (vortexed at 0 and 30 minutes). After sonication (10 sec pulse, 30 sec rest, 5 cycles, 70% amplification) and centrifugation (15,000 g, 15 min, 4° C.), only the supernatant was transferred to a microtube. RIPA buffer 7.5 μL and sample 2.5 μL were added to a 96-well plate to dilute to 1/4, and then BCA Protein Assay Kit (iNtRON, 21071) A and B were mixed in a 50:1 ratio and 200 μL each was added. After that, the plate was incubated at 37° C. for 30 minutes and left at room temperature for 10 minutes. After shaking for 10 seconds with a SYNERGY H1 microplate reader from BioTek, the absorbance was measured at 562 nm. The protein was quantified using the measured value to prepare a sample, which was then incubated at 70° C. for 10 minutes. The sample buffer used at this time is a mixture of NuPAGE or Bolt 4× sample buffer (Invitrogen) and each 10× sample reducing agent according to the gel to be used, and RIPA buffer was used for protein dilution.
[Western blotting detection] Equal amounts of samples were loaded onto NuPAGE or Bolt Bis-tris 4-12% gradient gels and run (200 V, 35 min). This was transferred to […] NC membranes using Trans-blot Turbo (BIO-RAD) (1.3 A constant, 25 V limit, 15 min), and was blocked at room temperature for 1 hour with Skim milk or Intercept Blocking Buffer (LI-COR, 927-60001):0.1% TBST=1:1. Anti-SHPTP2 Mouse (1:500 in 2% BSA/0.2% TBST, size: 70 kDa, Santacruz sc-7384) was incubated overnight at 4° C., and Anti-GAPDH Rabbit (1:2,000 in 2% BSA/0.2% TBST, size: 37 kDa, CST #2118) was incubated at room temperature for 1.5 hours or 3 hours. After washing three times for 5 minutes each with 0.2% TBST washing buffer, secondary antibodies Anti-Mouse IgG (1:5,000 in 2% BSA/0.2% TBST, CST) and IRDye® 680RD Goat anti-Rabbit IgG Secondary Antibody (1:10,000 in 2% BSA/0.2% TBST, LI-COR 926-68071) were added, and incubated on a rocker at room temperature for 45 minutes. The resultants were washed five times for 5 minutes each with 0.2% TBST washing buffer, and detected using LI-COR's Odyssey. GAPDH was detected with a 700 nm channel, and SHPTP2 was detected using SuperSignal West Pico PLUS Chemiluminescent Substrate.

| SMILES | SHP2% degradation (0.01 μM) | SHP2% degradation (0.1 μM) |
| --- | --- | --- |
| Cc1ncsc1-c1ccc(CNC(=O)[C@@H]2C[C@@H](O)CN2C(=O)[C@@H](NC(=O)C2(F)CC2)C(C)(C)C)c(OCCN2CCN(CCNc3cccc(Sc4cnc(N5CCC(C)(CN)CC5)cn4)c3Cl)C(=O)C2)c1 [Example 3, (2S,4R)—N-(2-(2-(4-(2-((3-((5-(4-(aminomethyl)-4-methylpiperidin-1-yl)pyrazin-2-yl)thio)-2-chlorophenyl)amino)ethyl)-3-oxopiperazin-1-yl)ethoxy)-4-(4-methylthiazol-5-yl)benzyl)-1-((S)-2-(1-fluorocyclopropane-1-carboxamido)-3,3-dimethylbutanoyl)-4-hydroxypyrrolidine-2-carboxamide] | 19% | 90.3% |
| Cc1ncsc1-c1ccc(CNC(=O)[C@@H]2C[C@@H](O)CN2C(=O)[C@@H](NC(=O)C2(F)CC2)C(C)(C)C)c(OCCN2CCN(C(=O)CNc3cccc(Sc4cnc(N5CCC(C)(CN)CC5)cn4)c3Cl)CC2)c1 [Example 4, (2S,4R)—N-(2-(2-(4-((3-((5-(4-(aminomethyl)-4-methylpiperidin-1-yl)pyrazin-2-yl)thio)-2-chlorophenyl)glycyl)piperazin-1-yl)ethoxy)-4-(4-methylthiazol-5-yl)benzyl)-1-((S)-2-(1-fluorocyclopropane-1-carboxamido)-3,3-dimethylbutanoyl)-4-hydroxypyrrolidine-2-carboxamide] | 42.9% | 95.6% |
| Cc1ncsc1-c1ccc(CNC(=O)[C@@H]2C[C@@H](O)CN2C(=O)[C@@H](NC(=O)C2(F)CC2)C(C)(C)C)c(OCCN2CCN(CC3CCN(c4nccc(Sc5cnc(N6CCC(C)(CN)CC6)cn5)c4Cl)CC3)CC2)c1 [Example 8, (2S,4R)—N-(2-(2-(4-((1-(4-((5-(4-(aminomethyl)-4-methylpiperidin-1-yl)pyrazin-2-yl)thio)-3-chloropyridin-2-yl)piperidin-4-yl)methyl)piperazin-1-yl)ethoxy)-4-(4-methylthiazol-5-yl)benzyl)-1-((S)-2-(1-fluorocyclopropane-1-carboxamido)-3,3-dimethylbutanoyl)-4-hydroxypyrrolidine-2-carboxamide] | 11.7% | 81.9% |
| Cc1ncsc1-c1ccc(CNC(=O)[C@@H]2C[C@@H](O)CN2C(=O)[C@@H](NC(=O)C2(F)CC2)C(C)(C)C)c(OC2CCN(CC3CCN(c4nccc(Sc5cnc(N6CCC(C)(CN)CC6)cn5)c4Cl)CC3)CC2)c1 [Example 9, (2S,4R)—N-(2-((1-((1-(4-((5-(4-(aminomethyl)-4-methylpiperidin-1-yl)pyrazin-2-yl)thio)-3-chloropyridin-2-yl)piperidin-4-yl)methyl)piperidin-4-yl)oxy)-4-(4-methylthiazol-5-yl)benzyl)-1-((S)-2-(1-fluorocyclopropane-1-carboxamido)-3,3-dimethylbutanoyl)-4-hydroxypyrrolidine-2-carboxamide] | 4.0% | 81.1% |
| Cc1ncsc1-c1ccc(CNC(=O)[C@@H]2C[C@@H](O)CN2C(=O)[C@@H](NC(=O)C2(F)CC2)C(C)(C)C)c(O[C@H]2CC[C@H](C(=O)N3CC(Nc4cccc(Sc5cnc(N6CCC(C)(CN)CC6)cn5)c4Cl)C3)CC2)c1 [Example 11, (2S,4R)—N-(2-(((1R,4S)-4-(3-((3-((5-(4-(aminomethyl)-4-methylpiperidin-1-yl)pyrazin-2-yl)thio)-2-chlorophenyl)amino)azetidine-1-carbonyl)cyclohexyl)oxy)-4-(4-methylthiazol-5-yl)benzyl)-1-((S)-2-(1-fluorocyclopropane-1-carboxamido)-3,3-dimethylbutanoyl)-4-hydroxypyrrolidine-2-carboxamide] | 83% | 97.9% |

Now from value to compound:

| SHP2% degradation (0.01 μM) | SHP2% degradation (0.1 μM) | SMILES |
| --- | --- | --- |
| 22.3% | 62.0% | Cc1ncsc1-c1ccc(CNC(=O)[C@@H]2C[C@@H](O)CN2C(=O)[C@@H](NC(=O)C2(F)CC2)C(C)(C)C)c(O[C@H]2CC[C@H](CN3CC(Nc4cccc(Sc5cnc(N6CCC(C)(CN)CC6)cn5)c4Cl)C3)CC2)c1 [Example 5, (2S,4R)—N-(2-(((1R,4S)-4-((3-((3-((5-(4-(aminomethyl)-4-methylpiperidin-1-yl)pyrazin-2-yl)thio)-2-chlorophenyl)amino)azetidin-1-yl)methyl)cyclohexyl)oxy)-4-(4-methylthiazol-5-yl)benzyl)-1-((S)-2-(1-fluorocyclopropane-1-carboxamido)-3,3-dimethylbutanoyl)-4-hydroxypyrrolidine-2-carboxamide] |
| 14.8% | 56.9% | Cc1ncsc1-c1ccc(CNC(=O)[C@@H]2C[C@@H](O)CN2C(=O)[C@@H](NC(=O)C2(F)CC2)C(C)(C)C)c(O[C@H]2CC[C@H](CN3CCC(Nc4cccc(Sc5cnc(N6CCC(C)(CN)CC6)cn5)c4Cl)CC3)CC2)c1 [Example 6, (2S,4R)—N-(2-(((1R,4S)-4-((4-((3-((5-(4-(aminomethyl)-4-methylpiperidin-1-yl)pyrazin-2-yl)thio)-2-chlorophenyl)amino)piperidin-1-yl)methyl)cyclohexyl)oxy)-4-(4-methylthiazol-5-yl)benzyl)-1-((S)-2-(1-fluorocyclopropane-1-carboxamido)-3,3-dimethylbutanoyl)-4-hydroxypyrrolidine-2-carboxamide] |
| 10.1% | 55.4% | Cc1ncsc1-c1ccc(CNC(=O)[C@@H]2C[C@@H](O)CN2C(=O)[C@@H](NC(=O)C2(F)CC2)C(C)(C)C)c(OC2CCN(C[C@H]3CC[C@H](Nc4nccc(Sc5cnc(N6CCC(C)(CN)CC6)cn5)c4Cl)CC3)CC2)c1 [Example 7, (2S,4R)—N-(2-((1-(((1R,4S)-4-((4-((5-(4-(aminomethyl)-4-methylpiperidin-1-yl)pyrazin-2-yl)thio)-3-chloropyridin-2-yl)amino)cyclohexyl)methyl)piperidin-4-yl)oxy)-4-(4-methylthiazol-5-yl)benzyl)-1-((S)-2-(1-fluorocyclopropane-1-carboxamido)-3,3-dimethylbutanoyl)-4-hydroxypyrrolidine-2-carboxamide] |
